Results taken from patent US6716851B2, “Substituted 2-aryl-4-arylaminopyrimidines and analogs as activators or caspases and inducers of apoptosis and the use thereof” (Cytovia, Inc., priority 2000, dated 2004).

Tests used:
[1] = test system: T-47D cells; experiment: Caspase cascade activation (N-(Ac-DEVD)-N'-ethoxycarbonyl-R110 fluorogenic substrate) in T-47D cells; type: cell-based, Human; conditions: 48 h incubation
In short: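 EC50 comes from sigmoidal fitting of the net RFU ratio over DMSO control, read at ex 485/em 530 nm 3 h after adding 14 μM Ac-DEVD-R110 in lysolecithin/DTT/PIPES pH 7.2 buffer. Compound (0.016-10 μM final) was applied to cells for 48 h at 37 °C beforehand.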

[2] = test system: T47D cells; experiment: Clonogenic survival of T47D cells; type: cell-based; conditions: Homo sapiens, 48 h treatment, colonies after 7-10 days, read-out: IC50 inhibition of clonogenic survival (colony forming ability), T47D
Description: T47D and MX-1 cells were grown according to the conditions according conditions recommended by American Type Culture Collection. In a well of a 96 well plate, 30,000 cells were seeded and treated with tested compound at the indicated concentrations for 48 hr in a 5% CO2-95% humidity incubator at 37° C. Control wells were treated with the same amount of solvent (DMSO) as the compound samples. After the 48 h treatment, the supernatant was removed to a sterile culture tube and the wells washed with phosphate buffered saline, and the adherent cells trypsinized for 5 min. The trypsinzed cells were added to the culture supernatant, cells were collected (1,200 rpm, 10 min), washed with phosphate buffered saline, and resuspended in fresh media. The cells were counted for trypan blue negative cells, and the cells diluted with fresh media to 1,000 cells/ml. To a well of a 24-well plate, 0.1 ml of the cell suspension was added along with 1 ml of fresh media (cell suspensions were passed through a 22G needle several times just before plating to form single cell suspensions). Plates are incubated in a 5% CO2-95% humidity incubator at 37° C. for 7-10 days. Colonies are counted when the sizes reached greater than 50 cells per colony. […] Colonies are rinsed with water and the colonies counted and the fraction surviving expressed as the percentage of the number of control colonies.

- EC50 ([1]; Homo sapiens, T47D, caspase activation potency, read-out: T47 EC50): 433 nM
SMILES: COc1cccc(Nc2cc(C(F)(F)F)nc(-c3ccccn3)n2)c1 [Compound A, 4-(3-methoxyanilino)-2-(2-pyridinyl)-6-(trifluoromethyl)pyrimidine]
- T47 Ratio 48 hr ([1]; caspase activity: ratio of net RFU of test compound to control): 29.3
- IC50 [2]: ~100 nM
